Measured values reported in patent publication US20220313701A1, “MODULATORS OF TREX1” (Constellation Pharmaceuticals, Inc., priority 2019, published 2022).

Assays:
full length human TREX1 = target: T1, full length human TREX1 (Homo sapiens, UniProt Q9NSU2); test: TREX1 Biochemical Assay (fluorescence assay, degradation of dsDNA substrate); conditions: 150 pM TREX1, 60 nM dsDNA substrate, 25 minutes at room temperature
T1 construct: N-terminally His-Tev tagged full length human TREX1; His-Tev (His tag with TEV site) (N); made in house; host or cells: E. coli
T1 sequence (Q9NSU2 1-314): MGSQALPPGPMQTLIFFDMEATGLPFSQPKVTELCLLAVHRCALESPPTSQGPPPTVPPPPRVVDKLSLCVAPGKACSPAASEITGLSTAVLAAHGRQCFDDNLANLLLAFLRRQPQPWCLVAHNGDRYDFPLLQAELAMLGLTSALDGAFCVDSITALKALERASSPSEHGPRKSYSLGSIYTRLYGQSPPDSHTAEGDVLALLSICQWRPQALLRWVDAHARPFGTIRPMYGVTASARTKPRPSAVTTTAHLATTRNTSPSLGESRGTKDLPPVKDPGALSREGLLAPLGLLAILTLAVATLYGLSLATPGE
Method: Degradation of the dsDNA liberates free fluorophore to produce a fluorescent signal. Specifically, 7.5 μL of N-terminally His-Tev tagged full length human TREX1 (expressed in E. coli and purified in house) in reaction buffer (50 mM Tris (pH 7.4), 150 mM NaCl, 2 mM DTT, 0.1 mg/mL BSA, 0.01% (v/v) Tween-20 and either 100 mM MgCl2) was added to a 384-well Black ProxiPlate Plus (Perkin Elmer) which already contained compound (150 nL) at varying concentrations as a 10 point dose-response in DMSO. To this was added 7.5 μL of dsDNA substrate (Strand A: 5′ TEX615/GCT AGG CAG 3′; Strand B: 5′ CTG CCT AGC/IAbRQSp (Integrated DNA Technologies)) in reaction buffer. Final concentrations were 150 pM TREX1, 60 nM dsDNA substrate in reaction buffer with 1.0% DMSO (v/v). After 25 minutes at room temperature, reactions were quenched by the addition of 5 μL of stop buffer (same as reaction buffer plus 200 mM EDTA). Final concentrations in the quenched reaction were 112.5 pM TREX1, 45 nM DNA and 50 mM EDTA in a volume of 20 μL. After a 5-minute incubation at room temperature, plates were read in a laser sourced Envision (Perkin-Elmer), measuring fluorescence at 615 nm following excitation w/570 nm light. IC50 values were calculated by comparing the measured fluorescence at 615 nm ratio relative to control wells pre-quenched w/stop buffer (100% inhibition) and no inhibitor (0% inhibition) controls as using non-linear least square four parameter fits and either Genedata or GraphPad Prism (GraphPad Software, Inc.).

[1] = target: T2, human TREX2 (residues M44-A279) (Homo sapiens, UniProt Q9BQ50); test: TREX2 Biochemical Assay (fluorescence assay, degradation of dsDNA substrate); conditions: 2.5 nM TREX2, 60 nM dsDNA substrate, 25 minutes at room temperature
T2 construct: human TREX2 (residues M44-A279, expressed in E. coli); His-Tev (His tag with TEV site) (N); made in house; host or cells: E. coli
T2 sequence (Q9BQ50 44-279 isoform Q9BQ50-1): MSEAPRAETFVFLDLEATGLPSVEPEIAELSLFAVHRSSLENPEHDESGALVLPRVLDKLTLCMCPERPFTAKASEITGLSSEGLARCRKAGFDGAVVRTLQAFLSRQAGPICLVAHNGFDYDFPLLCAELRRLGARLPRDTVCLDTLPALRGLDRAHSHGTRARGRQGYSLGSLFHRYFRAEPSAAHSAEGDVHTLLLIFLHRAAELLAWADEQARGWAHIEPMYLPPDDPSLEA
Method: Degradation of the dsDNA liberates free fluorophore to produce a fluorescent signal. Specifically, 7.5 μL of N-terminally His-Tev tagged human TREX2 (residues M44-A279, expressed in E. coli and purified in house) in reaction buffer (50 mM Tris (pH 7.4), 150 mM NaCl, 2 mM DTT, 0.1 mg/mL BSA, 0.01% (v/v) Tween-20 and 100 mM MgCl2) was added to a 384-well Black ProxiPlate Plus (Perkin Elmer) which already contained compound (150 nL) at varying concentrations as a 10 point dose-response in DMSO. To this was added 7.5 μL of dsDNA substrate (Strand A: 5′ TEX615/GCT AGG CAG 3′; Strand B: 5′ CTG CCT AGC/IAbRQSp (IDT)) in reaction buffer. Final concentrations were 2.5 nM TREX2, 60 nM dsDNA substrate in reaction buffer with 1.0% DMSO (v/v). After 25 minutes at room temperature, reactions were quenched by the addition of 5 μL of stop buffer (same as reaction buffer plus 200 mM EDTA). Final concentrations in the quenched reaction mixture were […] TREX2, 45 nM DNA and 50 mM EDTA in a volume of 20 μL. After a 5-minute incubation at room temperature, plates were read in a laser sourced Envision (Perkin-Elmer), measuring fluorescence at 615 nm following excitation w/570 nm light. IC50 values were calculated by comparing the measured fluorescence at 615 nm ratio relative to control wells pre-quenched w/stop buffer (100% inhibition) and no inhibitor (0% inhibition) controls as using non-linear least square four parameter fits and either Genedata or GraphPad Prism (GraphPad Software, Inc.).

| SMILES | IC50 (full length human TREX1) [µM] | IC50 [1] [µM] |
| --- | --- | --- |
| Cc1nn(C(C)C)cc1-c1cncc(N2CCC(O)(c3ccc(F)c(F)c3)CC2)n1 [Example 48, 4-(3,4-difluorophenyl)-1-(6-(1-isopropyl-3-methyl-1H-pyrazol-4-yl)pyrazin-2-yl)piperidin-4-ol] | < 0.1 | 10 to 100 |
| Cc1nn(C)cc1-c1cc(N2CCC(O)(c3ccc(F)c(F)c3)CC2)ccn1 [Example 49, 4-(3,4-difluorophenyl)-1-(2-(1,3-dimethyl-1H-pyrazol-4-yl)pyridin-4-yl)piperidin-4-ol] | 1 to 10 | > 100 |
| Cc1noc(C)c1-c1cncc(N2CCC(O)(c3ccc(F)c(F)c3)CC2)n1 [Example 52, 4-(3,4-difluorophenyl)-1-(6-(3,5-dimethylisoxazol-4-yl)pyrazin-2-yl)piperidin-4-ol] | 1 to 10 | > 100 |
| Cc1nn(C)cc1-c1ccnc(N2CCC(O)(c3ccc(F)c(F)c3)CC2)c1 [Example 55, 4-(3,4-difluorophenyl)-1-(4-(1,3-dimethyl-1H-pyrazol-4-yl)pyridin-2-yl)piperidin-4-ol] | > 10 | > 100 |
| Cc1nn(C)cc1-c1cncc(N2CCC(O)(c3ccc(F)cc3)C(F)(F)C2)n1 (stereo not shown) [Example 56, 1-(6-(1,3-dimethyl-1H-pyrazol-4-yl)pyrazin-2-yl)-3,3-difluoro-4-(4-fluorophenyl)piperidin-4-ol] | 0.1 to 1 | > 100 |
| Cn1cc(-c2cc(-c3cnn(C)c3)nc(N3CCC(O)(c4cccc(F)c4)CC3)c2)cn1 [Example 60, 1-(4,6-bis(1-methyl-1H-pyrazol-4-yl)pyridin-2-yl)-4-(3-fluorophenyl)piperidin-4-ol] | 1 to 10 | > 100 |
| Cn1cc(-c2cc(N3CCC(O)(c4cccc(F)c4)CC3)cc(-c3cnn(C)c3)n2)cn1 [Example 61, 1-(2,6-bis(1-methyl-1H-pyrazol-4-yl)pyridin-4-yl)-4-(3-fluorophenyl)piperidin-4-ol] | 1 to 10 | > 100 |
| Cc1nn(C)c(C)c1-c1cncc(N2CCC(O)(c3ccc(F)c(F)c3)CC2)n1 [Example 62, 4-(3,4-difluorophenyl)-1-(6-(1,3,5-trimethyl-1H-pyrazol-4-yl)pyrazin-2-yl)piperidin-4-ol] | < 0.1 | 10 to 100 |
| O=C(NCCc1ccccc1)c1cncc(N2CCC(O)(c3ccc(F)cc3)CC2)n1 [Example 64, 6-(4-(4-fluorophenyl)-4-hydroxypiperidin-1-yl)-N-phenethylpyrazine-Z-carboxamide] | 1 to 10 | > 100 |
| O=C(NCCc1ccccn1)c1cncc(N2CCC(O)(c3ccc(F)cc3)CC2)n1 [Example 68, 6-(4-(4-fluorophenyl)-4-hydroxypiperidin-1-yl)-N-(2-(pyridin-2-yl)ethyl)pyrazine-2-carboxamide] | 1 to 10 | > 100 |

The next lines start with the values.

| IC50 (full length human TREX1) [µM] | IC50 [1] [µM] | SMILES |
| --- | --- | --- |
| > 10 | > 100 | Cn1nc(C(F)(F)F)cc1-c1cncc(N2CCC(O)(c3ccc(F)c(F)c3)CC2)n1 [Example 50, 4-(3,4-difluorophenyl)-1-(6-(1-methyl-3-(trifluoromethyl)-1H-pyrazol-5-yl)pyrazin-2-yl)piperidin-4-ol] |
| 0.1 to 1 | > 100 | Cc1nn(C)cc1-c1ccnc(N2CCC(O)(c3ccc(F)c(F)c3)CC2)n1 [Example 51, 4-(3,4-difluorophenyl)-1-(4-(1,3-dimethyl-1H-pyrazol-4-yl)pyrimidin-2-yl)piperidin-4-ol] |
| 1 to 10 | > 100 | Cc1cc(-c2cncc(N3CCC(O)(c4ccc(F)c(F)c4)CC3)n2)n(C)n1 [Example 53, 4-(3,4-difluorophenyl)-1-(6-(1,3-dimethyl-1H-pyrazol-5-yl)pyrazin-2-yl)piperidin-4-ol] |
| 1 to 10 | > 100 | Cc1nn(C)cc1-c1nccc(N2CCC(O)(c3ccc(F)c(F)c3)CC2)n1 [Example 54, 4-(3,4-difluorophenyl)-1-(2-(1,3-dimethyl-1H-pyrazol-4-yl)pyrimidin-4-yl)piperidin-4-ol] |
| < 0.1 | > 100 | Cc1nc(-c2cn(C)nc2C)cc(N2CCC(O)(c3ccc(F)c(F)c3)CC2)n1 [Example 57, 4-(3,4-difluorophenyl)-1-(6-(1,3-dimethyl-1H-pyrazol-4-yl)-2-methylpyrimidin-4-yl)piperidin-4-ol] |
| < 0.1 | 10 to 100 | Cc1nn(C)cc1-c1cc(N2CCC(O)(c3ccc(F)c(F)c3)CC2)ncn1 [Example 58, 4-(3,4-difluorophenyl)-1-(6-(1,3-dimethyl-1H-pyrazol-4-yl)pyrimidin-4-yl)piperidin-4-ol] |
| 1 to 10 | > 100 | Cc1nn(C)cc1-c1cc(N2CCC(O)(c3ccc(F)c(F)c3)CC2)nc(-c2ccccc2)n1 [Example 59, 4-(3,4-difluorophenyl)-1-(6-(1,3-dimethyl-1H-pyrazol-4-yl)-2-phenylpyrimidin-4-yl)piperidin-4-ol] |
| < 0.1 | 1 to 10 | CCn1cc(-c2cncc(N3CCC(O)(c4ccc(F)c(F)c4)CC3)n2)c(C)n1 [Example 63, 4-(3,4-difluorophenyl)-1-(6-(1-ethyl-3-methyl-1H-pyrazol-4-yl)pyrazin-2-yl)piperidin-4-ol] |
| > 10 | > 100 | O=C(NCc1ccncc1)c1cncc(N2CCC(O)(c3ccc(F)cc3)CC2)n1 [Example 65, 6-(4-(4-fluorophenyl)-4-hydroxypiperidin-1-yl)-N-(pyridin-4-ylmethyl)pyrazine-2-carboxamide] |
| > 10 | > 100 | O=C(NCc1ccccn1)c1cncc(N2CCC(O)(c3ccc(F)cc3)CC2)n1 [Example 66, 6-(4-(4-fluorophenyl)-4-hydroxypiperidin-1-yl)-N-(pyridin-2-ylmethyl)pyrazine-2-carboxamide] |
| > 10 | > 100 | CN1CCN(C(=O)c2cncc(N3CCC(O)(c4ccc(F)cc4)CC3)n2)CC1 [Example 67, (6-(4-(4-fluorophenyl)-4-hydroxypiperidin-1-yl)pyrazin-2-yl)(4-methylpiperazin-1-yl)methanone] |
| > 10 | > 100 | COCCNC(=O)c1cncc(N2CCC(O)(c3ccc(F)cc3)CC2)n1 [Example 69, 6-(4-(4-fluorophenyl)-4-hydroxypiperidin-1-yl)-N-(2-methoxyethyl)pyrazine-2-carboxamide] |
| > 10 | > 100 | CN(C)CCCNC(=O)c1cncc(N2CCC(O)(c3ccc(F)cc3)CC2)n1 [Example 70, N-(3-(dimethylamino)propyl)-6-(4-(4-fluorophenyl)-4-hydroxypiperidin-1-yl)pyrazine-2-carboxamide] |
